Experimental data reported in ChEMBL document CHEMBL1158596, “Synthetic studies on selective adenosine A2A receptor antagonists. Part II: synthesis and structure-activity relationships of novel benzofuran derivatives” (Bioorg Med Chem Lett, 2010).
Converted amounts (≈) assume the structure as drawn.

How the values were obtained:
[1] = molecular target: Adenosine receptor A2a (Homo sapiens) (UniProt P29274); assay: Displacement of [3H]CGS21680 from human adenosine A2A receptor at 0.01 umol/L by scintillation counting
Chain of Adenosine receptor A2a (Homo sapiens) (P29274 whole entry): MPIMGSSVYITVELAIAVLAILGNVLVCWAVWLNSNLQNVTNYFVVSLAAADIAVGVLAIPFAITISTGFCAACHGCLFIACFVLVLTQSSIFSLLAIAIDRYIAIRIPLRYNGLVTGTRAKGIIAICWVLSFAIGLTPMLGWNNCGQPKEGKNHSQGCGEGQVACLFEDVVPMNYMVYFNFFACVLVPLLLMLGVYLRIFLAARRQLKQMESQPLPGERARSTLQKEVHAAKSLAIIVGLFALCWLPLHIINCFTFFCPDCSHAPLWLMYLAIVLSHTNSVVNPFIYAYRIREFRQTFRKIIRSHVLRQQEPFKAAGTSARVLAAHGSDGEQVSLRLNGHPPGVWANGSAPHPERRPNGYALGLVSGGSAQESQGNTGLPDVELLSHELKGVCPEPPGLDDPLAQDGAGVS

[2] = Intrinsic clearance in human liver microsome; assay type: ADME; conditions: liver microsomes
[3] = molecular target: Adenosine receptor A2a (Homo sapiens) (UniProt P29274); assay: Displacement of [3H]CGS21680 from human adenosine A2A receptor at 0.1 umol/L by scintillation counting
[4] = Intrinsic clearance in marmoset liver microsome […]; assay type: ADME, Callithrix jacchus; conditions: liver microsomes
[5] = Solubility n JP2 fluid; assay type: physicochemical
[6] = test system: Mus musculus; assay: Antiparkinsonian effect in mouse assessed as inhibition of CGS-21680-induced catalepsy at 10 mg/kg, po; assay type: functional; conditions: for inhibition in vivo at 10 mg/kg: Mus musculus
[7] = molecular target: T1, Adenosine receptor A1 (Homo sapiens) (UniProt P30542); assay: Antagonist activity at human adenosine A1 receptor at 1 umol/L; assay type: functional
T1 sequence (whole entry): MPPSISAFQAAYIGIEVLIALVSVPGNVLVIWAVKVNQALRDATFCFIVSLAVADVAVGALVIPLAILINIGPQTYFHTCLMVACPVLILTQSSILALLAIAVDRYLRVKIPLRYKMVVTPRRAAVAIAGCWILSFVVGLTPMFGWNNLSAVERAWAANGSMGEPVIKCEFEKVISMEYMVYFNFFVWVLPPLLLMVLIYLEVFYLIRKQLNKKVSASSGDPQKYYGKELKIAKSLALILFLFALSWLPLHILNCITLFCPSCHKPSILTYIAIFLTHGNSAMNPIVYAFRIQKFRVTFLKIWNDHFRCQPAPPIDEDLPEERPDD

[8] = molecular target: T2, Adenosine receptor A2b (Homo sapiens) (UniProt P29275); assay: Antagonist activity at human adenosine A2B receptor at 1 umol/L; assay type: functional
T2 sequence (whole entry): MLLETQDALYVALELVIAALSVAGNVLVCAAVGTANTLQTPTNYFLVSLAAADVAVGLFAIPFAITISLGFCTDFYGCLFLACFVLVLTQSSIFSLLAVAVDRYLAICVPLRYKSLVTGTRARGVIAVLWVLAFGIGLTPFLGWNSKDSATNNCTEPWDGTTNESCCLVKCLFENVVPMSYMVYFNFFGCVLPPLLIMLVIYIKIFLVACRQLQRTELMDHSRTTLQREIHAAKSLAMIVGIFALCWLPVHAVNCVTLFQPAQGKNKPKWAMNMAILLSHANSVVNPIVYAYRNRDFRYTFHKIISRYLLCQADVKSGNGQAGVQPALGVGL

| Compound | inhibition [1] | CLint scaled [2] | inhibition [3] | CLint scaled [4] | solubility [5] | inhibition in vivo at 10 mg/kg [6] | inhibition [7] | inhibition [8] | inhibition (INH) [6] |
| --- | --- | --- | --- | --- | --- | --- | --- | --- | --- |
| COc1ccc(-c2cnccn2)c2cc(C(=O)Nc3ccncc3)oc12 | 24% | 154 mL/min/kg | 22% |  |  |  |  |  |  |
| COc1ccc(N2CCOCC2)c2cc(C(=O)Nc3ccc(Cn4ccnc4)cc3)oc12 | 50% |  | 89% | 133 mL/min/kg | 2 µg/mL (≈ 4.62 µM) |  |  |  |  |
| COc1ccc(-c2ccncc2)c2cc(C(=O)Nc3ccncc3)oc12 | 18% | 32.8 mL/min/kg | 72% |  |  | 48% |  |  |  |
| COc1ccc(N2CCOCC2)c2cc(C(=O)Nc3ccncc3)oc12 | 30% |  | 73% | < 7.17 mL/min/kg | 87 µg/mL (≈ 246 µM) | 76% | 4% | 21% |  |
| CCNC(=O)c1cc2c(N3CCOCC3)ccc(OC)c2o1 | 37% |  | 87% |  |  | 44% |  |  |  |
| COc1ccc(-c2cccnc2)c2cc(C(=O)Nc3ccncc3)oc12 | 27% | 57 mL/min/kg | 67% |  |  | 38% |  |  |  |
| COc1ccc(-c2cccnc2)c2cc(C(=O)Nc3ccc(Cn4ccnc4)cc3)oc12 | 46% | 53 mL/min/kg | 83% |  |  | 60% |  |  |  |
| COc1ccc(-c2cnccn2)c2cc(C(=O)Nc3ccc(Cn4ccnc4)cc3)oc12 | 20% | < 7.83 mL/min/kg | 44% |  |  |  |  |  |  |
| COc1ccc(N2CCOCC2)c2cc(C(=O)NC3CCN(c4ncccn4)CC3)oc12 | -2% |  | 26% |  |  |  |  |  |  |
| COc1ccc(-c2ccccc2)c2cc(C(=O)Nc3ccncc3)oc12 | 29% | 580 mL/min/kg | 87% |  |  |  |  |  | 40% |
| COc1ccc(-c2ccncc2)c2cc(C(=O)Nc3ccc(Cn4ccnc4)cc3)oc12 | 56% | 40.7 mL/min/kg | 90% |  |  | 60% |  |  |  |
| COc1ccc(-c2ccccn2)c2cc(C(=O)Nc3ccncc3)oc12 | 4% | 37.2 mL/min/kg | 27% |  |  |  |  |  |  |
| COc1ccc(N2CCOCC2)c2cc(C(=O)Nc3ccc(CN4CCC(O)CC4)cc3)oc12 | 39% |  | 74% |  | 47 µg/mL (≈ 101 µM) | 50% |  |  |  |
| COc1ccc(N2CCOCC2)c2oc(C(=O)Nc3ccncc3)cc12 | 26% |  | 77% |  |  |  |  |  |  |
| CNC(=O)c1cc2c(N3CCOCC3)ccc(OC)c2o1 | 23% |  | 58% | 21.7 mL/min/kg | 97 µg/mL (≈ 334 µM) |  |  |  |  |
| COc1c(N2CCOCC2)ccc2cc(C(=O)Nc3ccncc3)oc12 |  |  | -5% |  |  |  |  |  |  |
